In ChEMBL document CHEMBL5352410, “Discovery of novel selenium-containing azole derivatives as antifungal agents by exploiting the hydrophobic cleft of CYP51” (Eur J Med Chem, 2022):
≈ marks a conversion by molar mass, not a printed value. Calls of active or inactive are those of the source. No cut-off for these calls is given here.

Tests used:
[1] = Subacute toxicity in water diet-fed Kunming mouse assessed as lesions in liver at 100 to 200 mg/kg, IG measured after 8 to 15 days; format: organism-based; settings: in vivo, po, dose lower 100 mg/kg, time lower 8 day, dose upper 200 mg/kg, time upper 15 day
[2] = tested on: Candida albicans; experiment: Antifungal activity against FCZ-resistant Candida albicans 901 by CLSI based broth microdilution method; format: functional
[3] = tested on: Candida albicans; experiment: Fungicidal activity against FCZ-resistant Candida albicans 632; format: functional
[4] = tested on: Candida albicans; experiment: Antifungal activity against FCZ-resistant Candida albicans 632 by CLSI based broth microdilution method; format: functional
[5] = tested on: Candida albicans; experiment: Antifungal activity against Candida albicans ATCC SC5314 infected in mouse model assessed as reduction in kidney fungal burden at 6 to 12 mg/kg, ip measured after 5 consecutive days by colony forming unit assay; format: functional, organism-based; settings: dose 6-12 mg/kg, time 5.0 day
[6] = Subacute toxicity in water diet-fed Kunming mouse assessed as lesions in kidney at 100 to 200 mg/kg, IG measured after 8 to 15 days; format: organism-based; settings: in vivo, po, dose lower 100 mg/kg, time lower 8 day, dose upper 200 mg/kg, time upper 15 day
[7] = Metabolic stability in mouse liver microsome assessed as half life; format: ADME; settings: liver microsomes
[8] = molecular target: T1, Lanosterol 14-alpha demethylase (Candida albicans (strain SC5314 / ATCC MYA-2876) (Yeast), UniProt P10613); experiment: Inhibition of CYP51 of Candida albicans ATCC SC5314 assessed as increase in obtusifoliol level at 1 ug/ml incubated for 16 hrs by GC-MS analysis (reference value: 0 %); design: scale not given: the % may be the effect or the level left; settings: at 1 µg/mL
T1 sequence (P10613 whole entry): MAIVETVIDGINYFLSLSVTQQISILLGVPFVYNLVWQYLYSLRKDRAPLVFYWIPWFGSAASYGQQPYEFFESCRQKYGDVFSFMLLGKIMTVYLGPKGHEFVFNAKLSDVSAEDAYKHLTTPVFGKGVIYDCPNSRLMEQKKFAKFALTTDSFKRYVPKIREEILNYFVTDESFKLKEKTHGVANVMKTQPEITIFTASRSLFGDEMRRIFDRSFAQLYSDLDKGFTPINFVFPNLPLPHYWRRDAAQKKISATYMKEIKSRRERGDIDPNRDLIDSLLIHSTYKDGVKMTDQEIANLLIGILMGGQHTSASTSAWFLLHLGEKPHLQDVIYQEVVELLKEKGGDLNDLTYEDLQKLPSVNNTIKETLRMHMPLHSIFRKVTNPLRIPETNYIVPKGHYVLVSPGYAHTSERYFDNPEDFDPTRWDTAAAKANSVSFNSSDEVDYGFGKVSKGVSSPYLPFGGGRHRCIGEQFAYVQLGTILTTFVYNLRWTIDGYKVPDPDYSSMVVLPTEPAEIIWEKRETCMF

[9] = tested on: Candida albicans; experiment: Antibiofilm activity against Candida albicans SC5314 assessed as sessile minimum inhibitory concentration measured after 24 hrs by XTT assay; format: functional
[10] = Acute toxicity in water diet-fed Kunming mouse assessed as change in body weight at 500 mg/kg, IG measured for 7 days; format: organism-based; settings: in vivo, po, 168 h, time 7 day
[11] = molecular target: T1, Lanosterol 14-alpha demethylase; experiment: Inhibition of CYP51 of Candida albicans ATCC SC5314 assessed as increase in eburicol level at 2 ug/ml incubated for 16 hrs by GC-MS analysis (reference value: 0 %); design: scale not given: the % may be the effect or the level left; settings: at 2 µg/mL
[12] = molecular target: T1, Lanosterol 14-alpha demethylase; experiment: Inhibition of CYP51 of Candida albicans ATCC SC5314 assessed as increase in lanosterol level at 1 ug/ml incubated for 16 hrs by GC-MS analysis (reference value: 1.7 %); design: scale not given: the % may be the effect or the level left; settings: at 1 µg/mL
[13] = molecular target: T1, Lanosterol 14-alpha demethylase; experiment: Inhibition of CYP51 of Candida albicans ATCC SC5314 assessed as increase in obtusifoliol level at 2 ug/ml incubated for 16 hrs by GC-MS analysis (reference value: 0 %); design: scale not given: the % may be the effect or the level left; settings: at 2 µg/mL
[14] = tested on: Candida albicans; experiment: Antifungal activity against FCZ-resistant Candida albicans CaR by CLSI based broth microdilution method; format: functional
[15] = Subacute toxicity in water diet-fed Kunming mouse assessed as focal necrosis in liver at 100 to 200 mg/kg, IG measured after 7 to 14 days by microscopic analysis; format: organism-based; settings: in vivo, po, dose lower 100 mg/kg, time lower 7 day, dose upper 200 mg/kg, time upper 14 day
[16] = tested on: Candida albicans; experiment: Antifungal activity against FCZ-resistant Candida albicans 17# by CLSI based broth microdilution method; format: functional
[17] = Cytotoxicity against human MDA-MB-231 cells by MTT assay; format: toxicity, cell-based
[18] = tested on: Candida albicans; experiment: Fungicidal activity against Candida albicans sc5314; format: functional
[19] = tested on: Candida albicans; experiment: Antibiofilm activity against Candida albicans CPCC400616 assessed as sessile minimum inhibitory concentration measured after 1.5 hrs by XTT assay; format: functional
[20] = molecular target: T1, Lanosterol 14-alpha demethylase; experiment: Inhibition of CYP51 of Candida albicans ATCC SC5314 assessed as increase in lanosterol level at 4 ug/ml incubated for 16 hrs by GC-MS analysis (reference value: 1.7 %); design: scale not given: the % may be the effect or the level left; settings: at 4 µg/mL
[21] = Metabolic stability in mouse liver microsome assessed as clearance; format: ADME; settings: liver microsomes, read-out: CLH
[22] = tested on: Candida albicans; experiment: Antibiofilm activity against Candida albicans SC5314 assessed as sessile minimum inhibitory concentration measured after 3 hrs by XTT assay; format: functional
[23] = tested on: Candida albicans; experiment: Antibiofilm activity against Candida albicans CPCC400616 assessed as sessile minimum inhibitory concentration measured after 24 hrs by XTT assay; format: functional
[24] = molecular target: T1, Lanosterol 14-alpha demethylase; experiment: Inhibition of CYP51 of Candida albicans ATCC SC5314 assessed as increase in lanosterol level at 2 ug/ml incubated for 16 hrs by GC-MS analysis (reference value: 1.7 %); design: scale not given: the % may be the effect or the level left; settings: at 2 µg/mL
[25] = tested on: Candida albicans; experiment: Fungicidal activity against FCZ-resistant Candida albicans CaR; format: functional
[26] = tested on: Candida albicans; experiment: Fungicidal activity against FCZ-resistant Candida albicans 901; format: functional
[27] = molecular target: T1, Lanosterol 14-alpha demethylase; experiment: Inhibition of CYP51 of Candida albicans ATCC SC5314 assessed as increase in eburicol level at 1 ug/ml incubated for 16 hrs by GC-MS analysis (reference value: 0 %); design: scale not given: the % may be the effect or the level left; settings: at 1 µg/mL
[28] = tested on: Candida albicans; experiment: Antibiofilm activity against Candida albicans SC5314 assessed as sessile minimum inhibitory concentration measured after 6 hrs by XTT assay; format: functional
[29] = molecular target: T1, Lanosterol 14-alpha demethylase; experiment: Inhibition of CYP51 of Candida albicans ATCC SC5314 assessed as increase in eburicol level at 8 ug/ml incubated for 16 hrs by GC-MS analysis (reference value: 0 %); design: scale not given: the % may be the effect or the level left; settings: at 8 µg/mL
[30] = Subacute toxicity in water diet-fed Kunming mouse assessed as effect on kidney at 100 to 200 mg/kg, IG measured after 7 to 14 days by microscopic analysis; format: organism-based; settings: in vivo, po, dose lower 100 mg/kg, time lower 7 day, dose upper 200 mg/kg, time upper 14 day
[31] = tested on: Candida albicans; experiment: Fungicidal activity against FCZ-resistant Candida albicans 904; format: functional
[32] = molecular target: T1, Lanosterol 14-alpha demethylase; experiment: Inhibition of CYP51 of Candida albicans ATCC SC5314 assessed as increase in eburicol level at 4 ug/ml incubated for 16 hrs by GC-MS analysis (reference value: 0 %); design: scale not given: the % may be the effect or the level left; settings: at 4 µg/mL
[33] = molecular target: T1, Lanosterol 14-alpha demethylase; experiment: Inhibition of CYP51 of Candida albicans ATCC SC5314 assessed as increase in obtusifoliol level at 4 ug/ml incubated for 16 hrs by GC-MS analysis (reference value: 0 %); design: scale not given: the % may be the effect or the level left; settings: at 4 µg/mL
[34] = tested on: Candida albicans; experiment: Antibiofilm activity against Candida albicans CPCC400616 assessed as sessile minimum inhibitory concentration measured after 6 hrs by XTT assay; format: functional
[35] = Acute toxicity in water diet-fed Kunming mouse assessed as animal death at 500 mg/kg, IG measured for 7 days; format: organism-based; settings: in vivo, po, 168 h, time 7 day
[36] = molecular target: T1, Lanosterol 14-alpha demethylase; experiment: Inhibition of CYP51 of Candida albicans ATCC SC5314 assessed as increase in lanosterol level at 8 ug/ml incubated for 16 hrs by GC-MS analysis (reference value: 1.7 %); design: scale not given: the % may be the effect or the level left; settings: at 8 µg/mL
[37] = Cytotoxicity against human HL-60 cells by MTT assay; format: toxicity, cell-based
[38] = tested on: Candida albicans; experiment: Antibiofilm activity against Candida albicans CPCC400616 assessed as sessile minimum inhibitory concentration measured after 3 hrs by XTT assay; format: functional
[39] = molecular target: T1, Lanosterol 14-alpha demethylase; experiment: Inhibition of CYP51 of Candida albicans ATCC SC5314 assessed as decrease in ergosterol level by measuring residual activity at 1 ug/ml incubated for 16 hrs by GC-MS analysis (reference value: 98.3 %); settings: at 1 µg/mL

With `Clc1ccc(C(Cn2ccnc2)[Se][Se]C(Cn2ccnc2)c2ccc(Cl)cc2Cl)c(Cl)c1` (stereo unspecified) the Activity [1] was “Non-Toxic”, the MIC [2] was 2 µg/mL (≈ 3.13 µM) and the MFC [3] was 16 µg/mL (≈ 25.1 µM). For the same compound, the MIC [4] was 4 µg/mL (≈ 6.27 µM), the Activity [5] was “Active” and the Activity [6] was “Non-Toxic”. The half-life [7] was 41.1 min, the Activity [8] was 6.4% and the MIC50 [9] was 0.5 µg/mL (≈ 0.784 µM). The MIC80 [9] was 32 µg/mL (≈ 50.1 µM), the Activity [10] was “Non-Toxic” and the Activity [11] was 62.8%. For the same compound, the Activity [12] was 8.4%, the Activity [13] was 12.2% and the MIC [14] was 2 µg/mL (≈ 3.13 µM). For the same compound, the Activity [15] was “Toxic”, the MIC [16] was 8 µg/mL (≈ 12.5 µM) and the IC50 [17] was 6.25 µM. For the same compound, the MFC [18] was 8 µg/mL (≈ 12.5 µM), the MIC50 [19] was 0.5 µg/mL (≈ 0.784 µM) and the MIC80 [19] was 2 µg/mL (≈ 3.13 µM). For the same compound, the Activity [20] was 14.2%, the CLint scaled [21] was 134 mL/min/kg and the MIC50 [22] was 0.5 µg/mL (≈ 0.784 µM). For the same compound, the MIC80 [22] was 4 µg/mL (≈ 6.27 µM), the MIC50 [23] was 4 µg/mL (≈ 6.27 µM) and the MIC80 [23] was 4 µg/mL (≈ 6.27 µM). It also gave an Activity [24] of 22.6%, an MFC [25] of 16 µg/mL (≈ 25.1 µM) and an MFC [26] of 2 µg/mL (≈ 3.13 µM). It also gave an Activity [27] of 60.8%, an MIC50 [28] of 0.5 µg/mL (≈ 0.784 µM) and an MIC80 [28] of 4 µg/mL (≈ 6.27 µM). For the same compound, the Activity [29] was 61.3%, the Activity [30] was “Toxic” and the MFC [31] was 4 µg/mL (≈ 6.27 µM). For the same compound, the Activity [32] was 69.5%, the Activity [33] was 13.5% and the MIC50 [34] was 1 µg/mL (≈ 1.57 µM). The MIC80 [34] was 4 µg/mL (≈ 6.27 µM), the Activity [35] was “Non-Toxic” and the Activity [36] was 16.7%. For the same compound, the IC50 [37] was 32.5 µM, the MIC50 [38] was 0.5 µg/mL (≈ 0.784 µM) and the MIC80 [38] was 4 µg/mL (≈ 6.27 µM). For the same compound, the Activity [39] was 24.4%.
